Reference: US10590113B2, “6-hydroxy-4-oxo-1,4-dihydropyrimidine-5-carboxamides as APJ agonists” (priority 2016, dated 2020)

These compounds were tested against T1, human APJ receptor (Homo sapiens, UniProt P35414) (assay: Intracellular cAMP Accumulation Assay (APJ hcAMP, HTRF)). Conditions: not given.
T1 construct: expressed in transfected cells; host or cells: HEK293
T1 sequence (P35414 1-380): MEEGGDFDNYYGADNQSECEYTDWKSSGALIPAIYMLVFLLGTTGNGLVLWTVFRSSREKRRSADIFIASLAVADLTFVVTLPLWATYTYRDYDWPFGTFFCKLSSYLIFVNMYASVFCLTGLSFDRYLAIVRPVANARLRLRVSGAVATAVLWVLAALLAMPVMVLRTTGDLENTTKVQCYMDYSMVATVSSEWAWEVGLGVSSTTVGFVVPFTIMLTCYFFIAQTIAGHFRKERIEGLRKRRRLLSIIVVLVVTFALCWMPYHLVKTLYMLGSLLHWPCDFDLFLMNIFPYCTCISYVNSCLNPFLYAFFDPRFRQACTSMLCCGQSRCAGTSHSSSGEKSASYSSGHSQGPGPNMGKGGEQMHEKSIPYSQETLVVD
Assay type: cell-based
Method in brief: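 Stably transfected HEK293 cells (5,000/well) incubated 30 min at room temperature with serially diluted compound, […] and 2 μM forskolin. cAMP measured by HTRF after 60 min with detection reagents, quantified against a cAMP standard curve; EC50 from variable-slope sigmoidal fit of inhibition of forskolin-stimulated cAMP.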
Work on `CCCCc1nc(=O)c(C(=O)N2CC[C@H](c3ccccc3)C2)c(O)n1-c1c(CC)cccc1CC` [Example 90, 2-butyl-3-(2,6-diethylphenyl)-6-hydroxy-5-[(3R)-3-phenylpyrrolidine-1-carbonyl]-3,4-dihydropyrimidin-4-one] yielded an EC50 of 0.01 to 10 nM.

Same assay, conditions: human APJ, cAMP accumulation; potency range class; read-out: hAPJ cAMP EC50 Potency range
In the case of `CCCCc1nc(=O)c(C(=O)N2CCC(c3ccccc3C#N)C2)c(O)n1-c1c(OC)cccc1OC` (single isomer, unassigned) [Example 365, 2-(1-(2-butyl-1-(2,6-dimethoxyphenyl)-6-hydroxy-4-oxo-1,4-dihydropyrimidine-5-carbonyl)pyrrolidin-3-yl)benzonitrile], the EC50 is reported as 0.01 to 10 nM.
`CCc1cccc(CC)c1-n1c(-c2cnn(CC)c2)nc(=O)c(C(=O)N2CCC(c3ncc(F)cc3F)C2)c1O` (single isomer, unassigned) [Example 315, 1-(2,6-diethylphenyl)-5-[3-(3,5-difluoropyridin-2-yl)pyrrolidine-1-carbonyl]-2-(1-ethyl-1H-pyrazol-4-yl)-6-hydroxy-1,4-dihydropyrimidin-4-one] showed an EC50 of 0.01 to 10 nM.
Compound `COc1cccc(OC)c1-n1c(-c2ccc(Cl)nc2)nc(=O)c(C(=O)N2CCC(c3ccc(F)cc3F)C2)c1O` (single isomer, unassigned) [Example 279, 2-(6-chloropyridin-3-yl)-5-[3-(2,4-difluorophenyl)pyrrolidine-1-carbonyl]-1-(2,6-dimethoxyphenyl)-6-hydroxy-1,4-hydropyrimidin-4-one] has an EC50 of 0.01 to 10 nM.
With `COc1cccc(OC)c1-n1c(-c2ccnc(C)c2)nc(=O)c(C(=O)N2CCC(c3c(F)cccc3F)C2)c1O` (single isomer, unassigned) [Example 257, 5-[3-(2,6-difluorophenyl)pyrrolidine-1-carbonyl]-1-(2,6-dimethoxyphenyl)-6-hydroxy-2-(2-methylpyridin-4-yl)-1,4-dihydropyrimidin-4-one] the EC50 was 0.01 to 10 nM.
`COc1cccc(OC)c1-n1c(-c2cccc(Cl)c2)nc(=O)c(C(=O)N2CCC(c3ncc(F)cc3F)C2)c1O` (single isomer, unassigned) [Example 238, 2-(3-chlorophenyl)-5-[3-(3,5-difluoropyridin-2-yl)pyrrolidine-1-carbonyl]-1-(2,6-dimethoxyphenyl)-6-hydroxy-1,4-dihydropyrimidin-4-one] was tested, and the EC50 was 0.01 to 10 nM.
`CCc1cccc(CC)c1-n1c(-c2ccn(CC(C)C)n2)nc(=O)c(C(=O)N2CCC(c3ncc(F)cc3F)C2)c1O` (single isomer, unassigned) [Example 320, 1-(2,6-diethylphenyl)-5-[3-(3,5-difluoropyridin-2-yl)pyrrolidine-1-carbonyl]-6-hydroxy-2-[1-(2-methylpropyl)-1H-pyrazol-3-yl]-1,4-dihydropyrimidin-4-one] showed an EC50 of 10 to 100 nM.
`COc1cccc(OC)c1-n1c(-c2cncc(Cl)c2)nc(=O)c(C(=O)N2CCC(c3c(F)cccc3F)C2)c1O` (single isomer, unassigned) [Example 247, 2-(5-chloropyridin-3-yl)-5-[3-(2,6-difluorophenyl)pyrrolidine-1-carbonyl]-1-(2,6-dimethoxyphenyl)-6-hydroxy-1,4-dihydropyrimidin-4-one] was tested, and the EC50 was 0.01 to 10 nM.
With `COc1cccc(OC)c1-n1c(CC2CC2)nc(=O)c(C(=O)N2CCC(c3ccc(Cl)cc3)C2)c1O` (single isomer, unassigned) [Example 228, 5-[3-(4-chlorophenyl)pyrrolidine-1-carbonyl]-2-(cyclopropylmethyl)-1-(2,6-dimethoxyphenyl)-6-hydroxy-1,4-dihydropyrimidin-4-one] the EC50 was 0.01 to 10 nM.

Same assay, conditions: human APJ, intracellular cAMP accumulation; read-out: hAPJ cAMP EC50 Potency range
`COc1cccc(OC)c1-n1c(COC(C)C)nc(=O)c(C(=O)N2CCC(c3c(F)cccc3F)C2)c1O` (single isomer, unassigned) [Example 166, 5-[3-(2,6-difluorophenyl)pyrrolidine-1-carbonyl]-1-(2,6-dimethoxyphenyl)-6-hydroxy-2-[(propan-2-yloxy)methyl]-1,4-dihydropyrimidin-4-one] showed an EC50 of 0.01 to 10 nM.
`COc1cccc(OC)c1-n1c(COC(C)C)nc(=O)c(C(=O)N2CC(c3ccc(C)cc3)C2)c1O` [Example 111, 1-(2,6-dimethoxyphenyl)-6-hydroxy-5-[3-(4-methylphenyl)azetidine-1-carbonyl]-2-[(propan-2-yloxy)methyl]-1,4-dihydropyrimidin-4-one] was tested, and the EC50 was 10 to 100 nM.
`CCCCc1nc(=O)c(C(=O)N2CC[C@H](OCc3ccccn3)C2)c(O)n1-c1c(OC)cccc1OC` [Example 64, 2-butyl-1-(2,6-dimethoxyphenyl)-6-hydroxy-5-[(3S)-3-[(pyridin-2-yl)methoxy]pyrrolidine-1-carbonyl]-1,4-dihydropyrimidin-4-one] was tested, and the EC50 was 0.01 to 10 nM.
Work on `CCCCc1nc(=O)c(C(=O)N2CC[C@@H](c3ccccc3)C2)c(O)n1C(c1ccccc1)C(C)C` (stereo partly drawn) [Example 129, 2-butyl-6-hydroxy-3-(2-methyl-1-phenylpropyl)-5-[(3S)-3-phenylpyrrolidine-1-carbonyl]-3,4-dihydropyrimidin-4-one] yielded an EC50 of 10 to 100 nM.
Work on `CCCCc1nc(=O)c(C(=O)N2Cc3ccc(F)cc3C2)c(O)n1-c1c(OC)cccc1OC` [Example 56, 2-butyl-1-(2,6-dimethoxyphenyl)-5-(5-fluoro-2,3-dihydro-1H-isoindole-2-carbonyl)-6-hydroxy-1,4-dihydropyrimidin-4-one] yielded an EC50 of 0.01 to 10 nM.
In the case of `CCCCc1nc(=O)c(C(=O)N2CCC(c3ccccc3F)C2)c(O)n1-c1c(OC)cccc1OC` (single isomer, unassigned) [Example 52, 2-butyl-1-(2,6-dimethoxyphenyl)-5-[3-(2-fluorophenyl)pyrrolidine-1-carbonyl]-6-hydroxy-1,4-dihydropyrimidin-4-one], the EC50 is reported as 0.01 to 10 nM.
For `CC[C@@H](c1cc(F)cc(F)c1)n1c(-c2cnn(C)c2)nc(=O)c(C(=O)N2CCC(c3ccc(Cl)cn3)C2)c1O` (single isomer, unassigned) [Example 187], the EC50 was 0.01 to 10 nM.
In the case of `CC[C@@H](c1cc(F)cc(F)c1)n1c(-c2ccn(CC)n2)nc(=O)c(C(=O)N2CCC(c3ncc(F)cc3F)C2)c1O` (single isomer, unassigned) [Example 192], the EC50 is reported as 0.01 to 10 nM.

Same assay, conditions: read-out: hAPJ cAMP EC50 Potency range
Compound `CCOCc1nc(=O)c(C(=O)N2CCC(Cc3ccc(F)cc3)CC2)c(O)n1-c1c(OC)cccc1OC` [Example 374, 1-(2,6-dimethoxyphenyl)-2-(ethoxymethyl)-5-(4-(4-fluorobenzyl)piperidine-1-carbonyl)-6-hydroxypyrimidin-4(1H)-one] has an EC50 of 0.01 to 10 nM.
`CCCCc1nc(=O)c(C(=O)N2CCC(c3ncccc3F)C2)c(O)n1-c1c(OC)cccc1OC` (single isomer, unassigned) [Example 367, 2-butyl-1-(2,6-dimethoxyphenyl)-5-(3-(3-fluoropyridin-2-yl)pyrrolidine-1-carbonyl)-6-hydroxypyrimidin-4(1H)-one] was tested, and the EC50 was 0.01 to 10 nM.
`CCOCc1nc(=O)c(C(=O)N2CCC(c3ncc(F)cc3F)C2)c(O)n1-c1c(OC)cccc1OC` (single isomer, unassigned) [Example 372, 5-(3-(3,5-difluoropyridin-2-yl)pyrrolidine-1-carbonyl)-1-(2,6-dimethoxyphenyl)-2-(ethoxymethyl)-6-hydroxypyrimidin-4(1H)-one] was tested, and the EC50 was 0.01 to 10 nM.

Same assay, conditions: read-out: hAPJ cAMP EC50 Potency range; human APJ, intracellular cAMP accumulation
Work on `CCCCc1nc(=O)c(C(=O)N2CCC(c3ccccn3)C2)c(O)n1-c1c(OC)cccc1OC` (single isomer, unassigned) [Example 70, 2-butyl-1-(2,6-dimethoxyphenyl)-6-hydroxy-5-[3-(pyridin-2-yl)pyrrolidine-1-carbonyl]-1,4-dihydropyrimidin-4-one] yielded an EC50 of 0.01 to 10 nM.
